Test results as given in PubChem BioAssay AID248 (DTP/NCI, 2004).
“And” between values parts separate entries of the source, which are not always exact repeats. Identical values can stand only once. Toxic doses and inconclusive results are not listed. No stated cut-off is given here; in the data, active means T/C of 150% or more; inactive means T/C below 125%.

Tested on: L1210 leukemia ip in BDF1 mice, survival T/C
Assay: NCI In Vivo Anticancer Drug Screen. Data for tumor model L1210 Leukemia (intraperitoneal) in B6D2F1 (BDF1) mice
Conditions: endpoint: mean survival time, higher = longer survival
Summary of the method: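 Tumor cells were implanted, animals were treated, and survival was followed. The result divides the treated measurement by the vehicle-control measurement.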

[1] = dose: 100.0 mg/kg/injection, schedule: Q04DX003 (ip), vehicle: Klucel (hydroxypropylcellulose) (HPC)
[2] = dose: 200.0 mg/kg/injection, schedule: Q04DX003 (ip), vehicle: Klucel (hydroxypropylcellulose) (HPC)
[3] = dose: 400.0 mg/kg/injection, schedule: Q04DX003 (ip), vehicle: Klucel (hydroxypropylcellulose) (HPC)
[4] = dose: 100.0 mg/kg/injection, schedule: Q01DX009 (ip), vehicle: saline with Tween-80
[5] = dose: 200.0 mg/kg/injection, schedule: Q01DX009 (ip), vehicle: saline with Tween-80
[6] = dose: 400.0 mg/kg/injection, schedule: Q01DX009 (ip), vehicle: saline with Tween-80
[7] = dose: 100.0 mg/kg/injection, schedule: Q04DX002 (ip), vehicle: Klucel (hydroxypropylcellulose) (HPC)
[8] = dose: 200.0 mg/kg/injection, schedule: Q04DX002 (ip), vehicle: Klucel (hydroxypropylcellulose) (HPC)
[9] = dose: 100.0 mg/kg/injection, schedule: Q01DX001 (ip), vehicle: saline
[10] = dose: 100.0 mg/kg/injection, schedule: Q04DX003 (ip), vehicle: acetone
[11] = dose: 200.0 mg/kg/injection, schedule: Q01DX001 (ip), vehicle: saline
[12] = dose: 200.0 mg/kg/injection, schedule: Q04DX003 (ip), vehicle: acetone
[13] = dose: 400.0 mg/kg/injection, schedule: Q01DX001 (ip), vehicle: saline
[14] = dose: 100.0 mg/kg/injection, schedule: Q04DX003 (ip), vehicle: saline with Tween-80
[15] = dose: 200.0 mg/kg/injection, schedule: Q04DX003 (ip), vehicle: saline with Tween-80
[16] = dose: 400.0 mg/kg/injection, schedule: Q04DX003 (ip), vehicle: saline with Tween-80
[17] = dose: 50.0 mg/kg/injection, schedule: Q01DX009 (ip), vehicle: saline with Tween-80
[18] = dose: 100.0 mg/kg/injection, schedule: Q04DX003 (ip), vehicle: saline sonified
[19] = dose: 200.0 mg/kg/injection, schedule: Q04DX003 (ip), vehicle: saline sonified
[20] = dose: 400.0 mg/kg/injection, schedule: Q04DX003 (ip), vehicle: saline sonified

Measured: T/C

COc1ccc(C(=O)CC(C)C(=O)O)c(O)c1C (configuration not stated)
inactive: [1] 95 % of control | [2] 98 % of control | [3] 96 % of control

CCCC1(CCC)NC(=O)N(CC(=O)OCC)C1=O
inactive: [4] 94 % of control | [5] 96 % of control | [6] 102 % of control

O=C(O)c1cc(Br)cc(I)c1Br
inactive: [7] 105 % of control | [8] 117 % of control | dose: 400.0 mg/kg/injection, schedule: Q04DX002 (ip), vehicle: Klucel (hydroxypropylcellulose) (HPC) 105 % of control

CC(=O)OC1=CC2(OC(C)=O)CCC1C1C(=O)OC(=O)C12 (configuration not stated)
inactive: [9] 102 % of control | [10] 93 % of control | [11] 91 % of control | [12] 96 % of control | [13] 90 % of control

Cn1nnnc1N/N=C(\Br)c1ccccc1
inactive: [4] 96 % of control | [14] 104 % of control | [5] 93 % of control | [15] 104 % of control | [6] 95 % of control | [16] 100 % of control

CCCC1(CCC)OOC(CCC)(CCC)OO1
inactive: [17] 96 % of control | [4] 96 % of control | [5] 110 % of control

Cc1cc(=O)[nH]c(N/N=C2/CCCCC2C)n1 (configuration not stated)
inactive: dose: 50.0 mg/kg/injection, schedule: Q01DX009 (ip), vehicle: Klucel (hydroxypropylcellulose) (HPC) 100 % of control | dose: 100.0 mg/kg/injection, schedule: Q01DX009 (ip), vehicle: Klucel (hydroxypropylcellulose) (HPC) 95 % of control | [1] 100 % of control | dose: 200.0 mg/kg/injection, schedule: Q01DX009 (ip), vehicle: Klucel (hydroxypropylcellulose) (HPC) 100 % of control | [2] 97 % of control

O=C(Nc1ccccc1)NC1CCCCC1
inactive: dose: 100.0 mg/kg/injection, schedule: Q01DX001 (ip), vehicle: Klucel (hydroxypropylcellulose) (HPC) 100 % of control | dose: 200.0 mg/kg/injection, schedule: Q01DX001 (ip), vehicle: Klucel (hydroxypropylcellulose) (HPC) 95 % of control | dose: 400.0 mg/kg/injection, schedule: Q01DX001 (ip), vehicle: Klucel (hydroxypropylcellulose) (HPC) 101 % of control

CCCCN=Cc1cc([N+](=O)[O-])ccc1O.CCCCN=Cc1cc([N+](=O)[O-])ccc1O.[Ni]
inactive: dose: 12.5 mg/kg/injection, schedule: Q01DX009 (ip), vehicle: saline with Tween-80 98 % of control | dose: 25.0 mg/kg/injection, schedule: Q01DX009 (ip), vehicle: saline with Tween-80 94 % of control | [17] 86 % of control

O=C(O)/C=N/OCc1cc2c(cc1Cl)OCO2
inactive: [18] 95 % of control | [19] 92 % of control | [20] 94 % of control

CCOC(=O)c1ccc(OCCOc2ccc(C(C)(C)CC)cc2)cc1
inactive: [14] 102 % of control | [15] 112 % of control | [16] 108 % of control

Nc1ccc(S(=O)(=O)c2ccc(NCC(=O)O)cc2)cc1
inactive: [17] 105 % of control | [4] 101 % of control | [14] 89 % of control | [5] 92 % of control | [15] 92 % of control

O=C(NC1CCCCC1)c1ccccc1
inactive: [1] 100 % of control | [2] 93 % of control | [3] 96 % of control

COc1ccccc1/C=C(\S)C(=O)O
inactive: [9] 103 % of control | [11] 97 % of control | [13] 97 % of control

CC1(C)N=C(N)Nc2nnc(-c3ccc(F)cc3)n21
inactive: [18] 89 % of control | [19] 101 % of control | [20] 89 % of control

C/C(=C\Cl)COC1CCCCO1 (configuration not stated)
inactive: dose: 100.0 mg/kg/injection, schedule: Q01DX009 (ip), vehicle: acetone 95 % of control | [10] 101 % of control | dose: 200.0 mg/kg/injection, schedule: Q01DX009 (ip), vehicle: acetone 95 % of control | [12] 101 % of control | dose: 400.0 mg/kg/injection, schedule: Q04DX003 (ip), vehicle: acetone 101 % of control

CC12CCC(C(C(=O)O)C1=O)C2(C)C (configuration not stated)
inactive: [14] 103 % of control | [15] 97 % of control | [16] 100 % of control

O=S(=O)(CC(O)(c1ccccc1)c1ccccc1)CC(O)(c1ccccc1)c1ccccc1
inactive: dose: 50.0 mg/kg/injection, schedule: Q01DX001 (ip), vehicle: saline 93 % of control | [9] 91 % of control | [11] 93 % of control | [13] 87 % of control

CCCCCCOc1ccc(C=Nc2ccc(C)cc2)cc1
inactive: [1] 97 % of control | [2] 103 % of control | [3] 101 % of control

CCCCNC(C)(C)CSSSCC(C)(C)NCCCC
inactive: dose: 6.25 mg/kg/injection, schedule: Q01DX009 (ip), vehicle: water 102 % of control | dose: 12.5 mg/kg/injection, schedule: Q01DX009 (ip), vehicle: water 92 % of control | dose: 12.5 mg/kg/injection, schedule: Q04DX003 (ip), vehicle: other 96 % of control | dose: 25.0 mg/kg/injection, schedule: Q01DX009 (ip), vehicle: water 92 % of control | dose: 25.0 mg/kg/injection, schedule: Q04DX003 (ip), vehicle: other 94 % of control | dose: 50.0 mg/kg/injection, schedule: Q01DX009 (ip), vehicle: other 106 % of control | dose: 50.0 mg/kg/injection, schedule: Q01DX009 (ip), vehicle: water 103 % of control | dose: 50.0 mg/kg/injection, schedule: Q04DX003 (ip), vehicle: other 94 % of control | dose: 100.0 mg/kg/injection, schedule: Q01DX009 (ip), vehicle: other 95 % of control

NC(=O)COc1ccc2ccccc2c1Cl
inactive: [7] 96 % of control | [8] 89 % of control

CCC(=O)NC1=CC(=O)c2ccccc2C1=O
inactive: dose: 75.0 mg/kg/injection, schedule: Q01DX001 (ip), vehicle: carboxymethylcellulose (CMC) 98 % of control | dose: 150.0 mg/kg/injection, schedule: Q01DX001 (ip), vehicle: carboxymethylcellulose (CMC) 97 % of control | dose: 300.0 mg/kg/injection, schedule: Q01DX001 (ip), vehicle: carboxymethylcellulose (CMC) 95 % of control

O=C1O/C(=C/c2ccccc2)C2CCCCC12 (configuration not stated)
inactive: dose: 100.0 mg/kg/injection, schedule: Q01DX009 (ip), vehicle: saline 90 % of control | dose: 100.0 mg/kg/injection, schedule: Q04DX003 (ip), vehicle: saline 105 % of control | dose: 200.0 mg/kg/injection, schedule: Q01DX009 (ip), vehicle: saline 93 % of control | dose: 200.0 mg/kg/injection, schedule: Q04DX003 (ip), vehicle: saline 93 % of control | dose: 400.0 mg/kg/injection, schedule: Q01DX009 (ip), vehicle: saline 95 % of control | dose: 400.0 mg/kg/injection, schedule: Q04DX003 (ip), vehicle: saline 95 % of control

Nc1ncnc(N)c1NC(=O)c1cccc(Br)c1
inactive: dose: 6.25 mg/kg/injection, schedule: Q04DX003 (ip), vehicle: saline with Tween-80 96 % of control | dose: 12.5 mg/kg/injection, schedule: Q04DX003 (ip), vehicle: saline with Tween-80 96 % of control | dose: 25.0 mg/kg/injection, schedule: Q04DX003 (ip), vehicle: saline with Tween-80 100 % of control and 103 % of control
